What was measured:
[1] = test system: oxonic acid (OA)-induced hyperuricemic model in Sprague-Dawley rats; assay: Example 4: renal arteriolar morphology in normal and OA-dosed rats; type: in vivo
Procedure: Materials and Methods. To produce hyperuricemia, rats received OA (Sigma, St Louis Mo., USA) 750 mg/kg body weight daily by gastric gavage. To investigate the treatment effect of febuxostat (also referred to herein as “Fx”), the drug was administered in drinking water at 50 mg/L (approximately 5-6 mg/kg/day) four weeks after OA dosing while the respective controls received 5.84 mg/L of NaCl in drinking water (to maintain a salt concentration equivalent to the Febuxostat-containing water). The following four groups (n=10-11) were included in the study: Group 1, normal control rats which received no treatment for eight weeks; Group 2, Normal+Febuxostat rats which received no treatment for four weeks and then were treated with febuxostat for four weeks from Weeks 5 to 8; Group 3, OA rats which received OA for eight weeks; and Group 4, OA+Febuxostat rats which received OA for eight weeks and febuxostat for four weeks from Weeks 5 to 8. Body weight, food and water intakes were measured daily. Systolic blood pressure, obtained in conscious rats by a tail cuff sphygmomanometer, and plasma uric acid were measured in all animals at baseline and at the end of four and eight weeks. […]
Renal Histology and Quantification of Morphology. […] Arteriolar morphology was assessed by indirect peroxidase immunostaining for alpha smooth-muscle actin (DAKO Corp, Carpinteria, Calif., USA). […]
For each arteriole, the outline of the vessel and its internal lumen (excluding the endothelium) were generated using computer analysis to calculate the total medial area (outline−inline) in 10 arterioles per biopsy. The media/lumen ratio was calculated by the outline/inline relationship (See, Sanchez-Lozada L G, et al., Am J Physiol Renal Physiol 283:F1105-F1110, (2002) and Sanchez-Lozada L G, et al., Kidney Int 67:237-247 (2005)). Quantifications were performed blinded.
(§1) Statistical Analysis. Values were expressed as mean±standard error of the mean (hereinafter “SEM”). In the study, values from the respective four treatment groups were analyzed by one-way analysis of variance (hereinafter “ANOVA”). […]

[2] = test system: subjects having a systolic BP≧160 mmHg or diastolic BP≧95 mmHg (elevated blood pressure); assay: Example 1: blood pressure change in subjects with elevated blood pressure, none taking antihypertensive agents at baseline (two double-blind studies); type: in vivo, human
Procedure: A total of 103 subjects (9 in the placebo group, 26 in each the 2-[3-cyano-4-(2-methylpropoxy)phenyl]-4-methylthiazole-5-carboxylic acid (hereinafter referred to as “febuxostat”) 80 mg and 120 mg once daily (hereinafter referred to as “QD”) groups, 10 in the febuxostat 240 mg QD group and 32 in the 4-hydroxy-3,4-pyrazolopyrimidine (hereinafter referred to as “allopurinol”) 300/100 mg QD group), having a systolic BP≧160 mmHg or diastolic BP≧95 mmHg, and thus considered to have “elevated blood pressure”, were examined. Allopurinol […] xanthine oxidoreductase inhibitor.
None of the above subjects were taking any antihypertensive agents at the baseline (start) of the study. These […] subjects were part of two (2) double-blind (hereinafter referred to as “DB”) studies. One study was of 28 weeks in duration. During this time, the subjects received 80 mg, 120 mg or 240 mg QD of febuxostat, placebo or allopurinol 300 or 100 mg QD, depending on the subject's renal function. The second study was 52 weeks in duration. During this time, the subjects received 80 mg or 120 mg QD of febuxostat or allopurinol 300 mg QD.

[3] = Example 4: body weight, food and water intake, side effects in normal and OA-dosed rats; type: in vivo, Sprague-Dawley rats
Procedure: Materials and Methods. To produce hyperuricemia, rats received OA (Sigma, St Louis Mo., USA) 750 mg/kg body weight daily by gastric gavage. To investigate the treatment effect of febuxostat (also referred to herein as “Fx”), the drug was administered in drinking water at 50 mg/L (approximately 5-6 mg/kg/day) four weeks after OA dosing while the respective controls received 5.84 mg/L of NaCl in drinking water (to maintain a salt concentration equivalent to the Febuxostat-containing water). The following four groups (n=10-11) were included in the study: Group 1, normal control rats which received no treatment for eight weeks; Group 2, Normal+Febuxostat rats which received no treatment for four weeks and then were treated with febuxostat for four weeks from Weeks 5 to 8; Group 3, OA rats which received OA for eight weeks; and Group 4, OA+Febuxostat rats which received OA for eight weeks and febuxostat for four weeks from Weeks 5 to 8. Body weight, food and water intakes were measured daily. Systolic blood pressure, obtained in conscious rats by a tail cuff sphygmomanometer, and plasma uric acid were measured in all animals at baseline and at the end of four and eight weeks. A renal micropuncture procedure along with systemic arterial blood pressure monitoring under pentobarbital anesthesia were performed at the end of eight weeks followed by morphologic evaluation of the renal preglomerular microvasculature.
Evaluation. Food and water intake were determined daily. Systolic blood pressure (hereinafter “SBP”) was measured in conscious animals by a tail cuff sphygmomanometer using an automated system (XBP-100, Kent Scientific Co, USA). All animals were preconditioned for blood pressure measurements one week before each experiment. Plasma UA, insulin and triglycerides were quantified using commercial kits (Diagnostic Chemicals Ltd, USA; Crystalchem, USA and Spinreact, Spain, respectively).
Statistical Analysis. Values were expressed as mean±standard error of the mean (hereinafter “SEM”). In the study, values from the respective four treatment groups were analyzed by one-way analysis of variance (hereinafter “ANOVA”). When the ANOVA p value was <0.05, the following comparisons were made using Bonferroni multiple comparison test: Normal Control vs. Normal+Fx, Normal Control vs. OA, Normal Control vs. OA+Fx and OA vs. OA+Fx. Pair wise comparisons were performed using contrast within the framework of the statistical model.

[4] = test system: oxonic acid (OA)-induced hyperuricemic model in Sprague-Dawley rats; assay: Example 4: plasma uric acid in normal and OA-dosed rats; type: in vivo
Procedure: Materials and Methods. To produce hyperuricemia, rats received OA (Sigma, St Louis Mo., USA) 750 mg/kg body weight daily by gastric gavage. To investigate the treatment effect of febuxostat (also referred to herein as “Fx”), the drug was administered in drinking water at 50 mg/L (approximately 5-6 mg/kg/day) four weeks after OA dosing while the respective controls received 5.84 mg/L of NaCl in drinking water (to maintain a salt concentration equivalent to the Febuxostat-containing water). […] Body weight, food and water intakes were measured daily. Systolic blood pressure, obtained in conscious rats by a tail cuff sphygmomanometer, and plasma uric acid were measured in all animals at baseline and at the end of four and eight weeks. […]
Evaluation. Food and water intake were determined daily. Systolic blood pressure (hereinafter “SBP”) was measured in conscious animals by a tail cuff sphygmomanometer using an automated system (XBP-100, Kent Scientific Co, USA). […] Plasma UA, insulin and triglycerides were quantified using commercial kits (Diagnostic Chemicals Ltd, USA; Crystalchem, USA and Spinreact, Spain, respectively).
as §1

[5] = 80 mg QD, after 4 weeks of treatment
[6] = 80 mg QD, after 28 weeks of treatment
[7] = 80 mg QD, after 52 weeks of treatment
[8] = 120 mg QD, after 4 weeks of treatment
[9] = 120 mg QD, after 28 weeks of treatment
[10] = 120 mg QD, after 52 weeks of treatment
[11] = 240 mg QD, after 4 weeks of treatment
[12] = 240 mg QD, after 28 weeks of treatment
[13] = Normal + Fx rats, End of Week 4 (before Fx)
[14] = Normal + Fx rats, End of Week 8
[15] = Normal + Fx rats, Week 1 (before Fx)
[16] = Normal + Fx rats, Week 4 (before Fx)
[17] = OA + Fx rats, End of Week 4 (before Fx)
[18] = OA + Fx rats, Week 1 (before Fx)
[19] = OA + Fx rats, Week 4 (before Fx)

Cc1nc(-c2ccc(OCC(C)C)c(C#N)c2)sc1C(=O)O [febuxostat, 2-[3-cyano-4-(2-methylpropoxy)phenyl]-4-methylthiazole-5-carboxylic acid]
thickening of the afferent arteriole (medial area), effect in words ([1]; OA-treated rats, FIG. 4): able to alleviate this thickening
arteriolar media-lumen ratio (effect in words) ([1]; OA-treated rats, FIG. 5): significantly reduced
arteriolar morphology (effect in words) ([1]; normal rats): no effect on arteriolar morphology
mean change from baseline for diastolic BP [2, 5]: −3.7 mmHg
mean change from baseline for mean arterial BP [2, 5]: −5.2 mmHg
mean change from baseline for systolic BP [2, 5]: −8.2 mmHg
mean change from baseline for diastolic BP [2, 6]: −10.2 mmHg
mean change from baseline for mean arterial BP [2, 6]: −11.1 mmHg
mean change from baseline for systolic BP [2, 6]: −13.0 mmHg
mean change from baseline for diastolic BP [2, 7]: −12.3 mmHg
mean change from baseline for mean arterial BP [2, 7]: −12.7 mmHg
mean change from baseline for systolic BP [2, 7]: −13.4 mmHg
mean change from baseline for diastolic BP [2, 8]: −8.4 mmHg
mean change from baseline for mean arterial BP [2, 8]: −9.3 mmHg
mean change from baseline for systolic BP [2, 8]: −11.0 mmHg
mean change from baseline for diastolic BP [2, 9]: −6.4 mmHg
mean change from baseline for mean arterial BP [2, 9]: −9.0 mmHg
mean change from baseline for systolic BP [2, 9]: −14.2 mmHg
mean change from baseline for diastolic BP [2, 10]: −10.0 mmHg
mean change from baseline for mean arterial BP [2, 10]: −15.2 mmHg
mean change from baseline for systolic BP [2, 10]: −25.8 mmHg
mean change from baseline for diastolic BP [2, 11]: −8.9 mmHg
mean change from baseline for mean arterial BP [2, 11]: −9.3 mmHg
mean change from baseline for systolic BP [2, 11]: −10.0 mmHg
mean change from baseline for diastolic BP [2, 12]: −5.0 mmHg
mean change from baseline for mean arterial BP [2, 12]: −6.0 mmHg
mean change from baseline for systolic BP [2, 12]: −8.0 mmHg
BW ([3]; Normal + Fx rats, Baseline (Fx 50 mg/L in drinking water Weeks 5 to 8), mean ± SEM): 319.9 ± 3.0 gr
% BW gain from baseline [3, 13]: 11.9 ± 1.8%
BW [3, 13]: 359.3 ± 7.2 gr
% BW gain from Week 4 [3, 14]: 6.6 ± 0.8 %
% BW gain from baseline [3, 14]: 18.7 ± 1.8%
BW [3, 14]: 377.7 ± 7.5 gr
Daily Food intake [3, 15]: 18.3 ± 0.6 gr
Daily Water intake [3, 15]: 34.5 ± 2.4 mL
Daily Food intake [3, 16]: 16.0 ± 0.7 gr
Daily Water intake [3, 16]: 32.3 ± 1.4 mL
Daily Food intake ([3]; Normal + Fx rats, Week 8): 18.0 ± 0.4 gr
Daily Water intake ([3]; Normal + Fx rats, Week 8): 39.7 ± 1.7 mL
BW ([3]; OA + Fx rats, Baseline (Fx 50 mg/L in drinking water Weeks 5 to 8), mean ± SEM): 323.6 ± 3.2 gr
% BW gain from baseline [3, 17]: 6.7 ± 1.7%
BW [3, 17]: 345.3 ± 5.7 gr
% BW gain from Week 4 ([3]; OA + Fx rats, End of Week 8): 5.2 ± 0.7 %
% BW gain from baseline ([3]; OA + Fx rats, End of Week 8): 12.3 ± 1.9%
BW ([3]; OA + Fx rats, End of Week 8): 363.2 ± 5.7 gr
Daily Food intake [3, 18]: 15.1 ± 0.7 gr
Daily Water intake [3, 18]: 36.6 ± 2.2 mL
Daily Food intake [3, 19]: 17.4 ± 0.7 gr
Daily Water intake [3, 19]: 33.8 ± 2.4 mL
Daily Food intake ([3]; OA + Fx rats, Week 8): 18.6 ± 0.4 gr
Daily Water intake ([3]; OA + Fx rats, Week 8): 42.6 ± 2.3 mL
behaviour and side effects ([3]; all rats, eight-week study): no side effects were observed
plasma uric acid levels (effect in words) ([4]; OA-dosed rats, febuxostat added beginning at 4 weeks, FIG. 1): reduced the uric acid levels back into the normal range
uric acid levels relative to control ([4]; normal rats receiving febuxostat, difference not statistically significant): approximately 53 % of control values
